Patent US8921307B2, “Synthetic linear apelin mimetics for the treatment of heart failure” (priority 2012, dated 2014)
Where two headings read alike, the source gives them in different places. Where a SMILES comes first, the peptide text is derived from it. [ ]: non-standard residue; d: D form. The star is where a group is joined. Phe(3,4-Cl2) = N[C@@H](Cc1ccc(Cl)c(Cl)c1)C(=O)O; 2Nal = N[C@@H](Cc1ccc2ccccc2c1)C(=O)O; dTic = O=C(O)[C@H]1Cc2ccccc2CN1; Cha = N[C@@H](CC1CCCCC1)C(=O)O; pGlu = O=C1CC[C@@H](C(=O)O)N1; dNle = CCCC[C@@H](N)C(=O)O; Nle = CCCC[C@H](N)C(=O)O; Aib = CC(C)(N)C(=O)O; Bn = c1ccc(C*)cc1

Columns and labels:
[1] = target: T1, hAPJ (Homo sapiens, UniProt P35414); experiment: hAPJ Calcium Flux Assay; format: cell-based
T1 sequence (P35414 1-380): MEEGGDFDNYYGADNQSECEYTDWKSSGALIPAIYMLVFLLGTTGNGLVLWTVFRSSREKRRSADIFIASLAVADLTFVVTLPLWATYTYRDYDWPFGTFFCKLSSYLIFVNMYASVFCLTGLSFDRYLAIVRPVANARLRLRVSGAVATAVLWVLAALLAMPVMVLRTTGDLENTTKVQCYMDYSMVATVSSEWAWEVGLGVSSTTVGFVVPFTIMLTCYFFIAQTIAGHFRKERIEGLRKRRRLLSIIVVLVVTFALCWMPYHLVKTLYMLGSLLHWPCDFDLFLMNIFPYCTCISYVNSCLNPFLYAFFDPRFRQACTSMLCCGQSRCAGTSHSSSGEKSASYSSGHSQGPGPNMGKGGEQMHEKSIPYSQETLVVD
Experimental: Chem-5 APJ stable cells (Millipore # HTS068C) were plated in 384-well format with 10,000 cells/well in 25 ul growth media, then grown 24 hours in a 37° C. tissue culture incubator. One hour before the assay, 25 ul/well FLIPR Calcium 4 dye (Molecular Devices R8142) with 2.5 mM probenecid was added, and cells were incubated one hour in a 37° C. tissue culture incubator. Peptides were solubilized in HBSS, HEPES & 0.1% BSA buffer, and serially-diluted 10-fold, from 50 uM to […], in triplicate. FLIPR Tetra was used to add peptide to the cells with dye (1:5, for final peptide concentrations ranging from 10 uM to […]). FLIPR dye inside the cells emitted fluorescence after binding to calcium, while fluorescence from outside the cells was masked. Fluorescence was measured using 470-495 excitation and 515-575 emission wavelengths on the FLIPR Tetra. Readings were done for 3 minutes total, beginning 10 seconds before the peptide addition. Maximum-minimum values were calculated and plotted for each peptide concentration, and GraphPad prism software was used to calculate EC50 values at the curve inflection points, for calcium flux stimulation by peptides.

[2] = Surrogate Activity-Based Plasma Stability Assay; format: in vitro ADME; settings: rat
Experimental: Stability half-life was then calculated by the formula, t½=0.693÷k Surrogate Activity-Based Plasma Stability Assay: […]
2) Calculate slope of value above and […]

[3] = Chem-5 APJ stable cells, FLIPR calcium flux stimulation, read-out: hAPJ Ca^2+ Flux EC50
[4] = Surrogate activity-based Plasma stability t½

Structure (SMILES)	EC50 [1, 3] [nM]	half-life [2, 4] [h]	EC50 [1] [nM]	half-life ([2]; read-out: Surrogate activity-based Plasma stability t½) [h]
CCCC[C@@H](NC(=O)[C@@H]1CCCN1C(=O)CNC(=O)[C@H](CCCCN)NC(=O)[C@H](Cc1c[nH]cn1)NC(=O)[C@@H](C)NC(=O)[C@H](CC(C)C)NC(=O)[C@H](CCCNC(=N)N)NC(=O)[C@@H]1CCCN1C(=O)[C@H](CCCNC(=N)N)NC(=O)[C@@H]1CCC(=O)N1)C(=O)N[C@H](CCCNC(=N)N)C(=O)N[C@H](Cc1ccccc1)C(=O)O [Example 20, pE-R-P-R-L-a-H-K-G-P-nle-r-f-OH] ([pGlu]RPRL[dA]HKGP[dNle][dR][dF]-OH)	922	> 16.7		
CCCC[C@@H](NC(=O)[C@@H]1CCCN1C(=O)CNC(=O)[C@H](CCCCN)NC(=O)[C@H](Cc1c[nH]cn1)NC(=O)[C@@H](C)NC(=O)[C@H](CC(C)C)NC(=O)[C@H](CCCNC(=N)N)NC(=O)[C@@H]1CCCN1C(=O)[C@H](CCCNC(=N)N)NC(=O)[C@@H]1CCC(=O)N1)C(=O)N[C@H](C)C(=O)N[C@H](Cc1ccc(O)cc1)C(=O)O [Example 21, pE-R-P-R-L-a-H-K-G-P-nle-a-y-OH] ([pGlu]RPRL[dA]HKGP[dNle][dA][dY]-OH)	0.9	> 16.7		
CCCC[C@@H](NC(=O)[C@@H]1CCCN1C(=O)CNC(=O)[C@H](CCCCN)NC(=O)[C@H](Cc1c[nH]cn1)NC(=O)[C@@H](C)NC(=O)[C@H](CC(C)C)NC(=O)[C@H](CCCNC(=N)N)NC(=O)[C@@H]1CCCN1C(=O)[C@H](CCCNC(=N)N)NC(=O)[C@@H]1CCC(=O)N1)C(=O)N[C@H](C)C(=O)N[C@H](CC(=O)O)C(=O)O [Example 22, pE-R-P-R-L-a-H-K-G-P-nle-a-d-OH] ([pGlu]RPRL[dA]HKGP[dNle][dA][dD]-OH)	86.8	> 16.7		
CCCC[C@@H](NC(=O)[C@@H]1CCCN1C(=O)CNC(=O)[C@H](CCCCN)NC(=O)[C@H](Cc1c[nH]cn1)NC(=O)[C@@H](C)NC(=O)[C@H](CC1CCCCC1)NC(=O)[C@H](CCCNC(=N)N)NC(=O)[C@@H]1CCCN1C(=O)[C@H](CCCNC(=N)N)NC(=O)[C@@H]1CCC(=O)N1)C(=O)N[C@H](C)C(=O)N[C@H](Cc1ccccc1)C(=O)O [Example 23, pE-R-P-R-Cha-a-H-K-G-P-nle-a-f-OH] ([pGlu]RPR[Cha][dA]HKGP[dNle][dA][dF]-OH)	2.8	2.08		
CCCC[C@@H](NC(=O)[C@@H]1CCCN1C(=O)CNC(=O)[C@H](CCCCN)NC(=O)[C@H](Cc1c[nH]cn1)NC(=O)[C@@H](C)NC(=O)[C@H](Cc1ccc(Cl)c(Cl)c1)NC(=O)[C@H](CCCNC(=N)N)NC(=O)[C@@H]1CCCN1C(=O)[C@H](CCCNC(=N)N)NC(=O)[C@@H]1CCC(=O)N1)C(=O)N[C@H](C)C(=O)N[C@H](Cc1ccccc1)C(=O)O [Example 24, pE-R-P-R-(3,4-Cl2-F)-a-H-K-G-P-nle-a-f-OH] ([pGlu]RPR[Phe(3,4-Cl2)][dA]HKGP[dNle][dA][dF]-OH)	13.8	0.958		
CCCC[C@@H](NC(=O)[C@@H]1CCCN1C(=O)CNC(=O)[C@H](CCCCN)NC(=O)[C@H](Cc1c[nH]cn1)NC(=O)[C@@H](C)NC(=O)[C@H](Cc1ccc2ccccc2c1)NC(=O)[C@H](CCCNC(=N)N)NC(=O)[C@@H]1CCCN1C(=O)[C@H](CCCNC(=N)N)NC(=O)[C@@H]1CCC(=O)N1)C(=O)N[C@H](C)C(=O)N[C@H](Cc1ccccc1)C(=O)O [Example 25, pE-R-P-R-(2-Nal)-a-H-K-G-P-nle-a-f-OH] ([pGlu]RPR[2Nal][dA]HKGP[dNle][dA][dF]-OH)	69.2	4.03		
CCCC[C@@H](NC(=O)[C@@H]1CCCN1C(=O)CNC(=O)[C@H](CCCCN)NC(=O)[C@H](Cc1c[nH]cn1)NC(=O)[C@@H](C)NC(=O)[C@H](CC(C)C)NC(=O)[C@H](CCCNC(=N)N)NC(=O)[C@@H]1CCCN1C(=O)[C@H](CCCNC(=N)N)NC(=O)[C@@H]1CCC(=O)N1)C(=O)N[C@H](C)C(=O)N1Cc2ccccc2C[C@@H]1C(=O)O [Example 26, pE-R-P-R-L-a-H-K-G-P-nle-a-tic-OH] ([pGlu]RPRL[dA]HKGP[dNle][dA][dTic]-OH)	1.7	16.4		
CCCC[C@@H](NC(=O)[C@@H]1CCCN1C(=O)CNC(=O)[C@H](CCCCN)NC(=O)[C@H](Cc1c[nH]cn1)NC(=O)[C@@H](C)NC(=O)[C@H](Cc1ccc(OCc2ccccc2)cc1)NC(=O)[C@H](CCCNC(=N)N)NC(=O)[C@@H]1CCCN1C(=O)[C@H](CCCNC(=N)N)NC(=O)[C@@H]1CCC(=O)N1)C(=O)N[C@H](C)C(=O)N[C@H](Cc1ccccc1)C(=O)O [Example 27, pE-R-P-R-Y(Bzl)-a-H-K-G-P-nle-a-f-OH] ([pGlu]RPRY(Bn)[dA]HKGP[dNle][dA][dF]-OH)			121	5.81
CCCC[C@@H](NC(=O)[C@@H]1CCCN1C(=O)CNC(=O)[C@H](CCCCN)NC(=O)[C@H](Cc1c[nH]cn1)NC(=O)[C@@H](C)NC(=O)[C@H](CC(C)C)NC(=O)[C@H](CCCNC(=N)N)NC(=O)[C@@H]1CCCN1C(=O)[C@H](CCCNC(=N)N)NC(=O)[C@@H]1CCC(=O)N1)C(=O)N[C@H](C)C(=O)NCCc1ccccc1 [Example 36, pE-R-P-R-L-a-H-K-G-P-nle-a-NH(Phenethyl)]	16.2	2.02		

Second part, led by results:

EC50 [1, 3] [nM]	half-life [2, 4] [h]	Structure (SMILES)	EC50 [1] [nM]	half-life ([2]; read-out: Surrogate activity-based Plasma stability t½) [h]
114	> 16.7	CCCC[C@@H](NC(=O)[C@@H]1CCCN1C(=O)CNC(=O)[C@H](CCCCN)NC(=O)[C@H](Cc1c[nH]cn1)NC(=O)[C@@H](C)NC(=O)[C@H](Cc1ccc(O)cc1)NC(=O)[C@H](CCCNC(=N)N)NC(=O)[C@@H]1CCCN1C(=O)[C@H](CCCNC(=N)N)NC(=O)[C@@H]1CCC(=O)N1)C(=O)N[C@H](C)C(=O)N[C@H](Cc1ccccc1)C(=O)O [Example 28, pE-R-P-R-Y-a-H-K-G-P-nle-a-f-OH] ([pGlu]RPRY[dA]HKGP[dNle][dA][dF]-OH)		
99	5.78	CCCC[C@H](NC(=O)[C@@H]1CCCN1C(=O)CNC(=O)[C@@H](CCCCN)NC(=O)[C@H](Cc1c[nH]cn1)NC(=O)[C@@H](C)NC(=O)[C@H](CC(C)C)NC(=O)[C@H](CCCNC(=N)N)NC(=O)[C@@H]1CCCN1C(=O)[C@H](CCCNC(=N)N)NC(=O)[C@@H]1CCC(=O)N1)C(=O)N[C@H](C)C(=O)N[C@H](Cc1ccccc1)C(=O)O [Example 31, pE-R-P-R-L-a-H-k-G-P-Nle-a-f-OH]		
14.8	> 16.7	CCCC[C@@H](NC(=O)[C@@H]1CCCN1C(=O)CNC(=O)[C@H](CCCCN)NC(=O)[C@H](Cc1c[nH]cn1)NC(=O)[C@@H](C)NC(=O)[C@H](CC(C)C)NC(=O)[C@H](CCCNC(=N)N)NC(=O)[C@@H]1CCCN1C(=O)[C@H](CCCNC(=N)N)NC(=O)[C@@H]1CCC(=O)N1)C(=O)N[C@H](C)C(=O)N[C@H](Cc1ccccc1)C(N)=O [Example 33, pE-R-P-R-L-a-H-K-G-P-nle-a-f-NH2]		
34.5	0.387	CCCC[C@H](NC(=O)[C@@H]1CCCN1C(=O)CNC(=O)[C@H](CCCCN)NC(=O)[C@H](Cc1c[nH]cn1)NC(=O)[C@@H](C)NC(=O)[C@H](CC(C)C)NC(=O)[C@H](CCCNC(=N)N)NC(=O)[C@@H]1CCCN1C(=O)[C@H](CCCNC(=N)N)NC(=O)[C@@H]1CCC(=O)N1)C(=O)N1CCC[C@H]1C(=O)N[C@H](Cc1ccccc1)C(=O)O [Example 34, pE-R-P-R-L-a-H-K-G-P-Nle-P-f-OH] ([pGlu]RPRL[dA]HKGP[Nle]P[dF]-OH)		
10.7	> 16.7	CCCC[C@H](NC(=O)[C@@H]1CCCN1C(=O)CNC(=O)[C@H](CCCCN)NC(=O)[C@H](Cc1c[nH]cn1)NC(=O)[C@@H](C)NC(=O)[C@H](CC(C)C)NC(=O)[C@H](CCCNC(=N)N)NC(=O)[C@@H]1CCCN1C(=O)[C@H](CCCNC(=N)N)NC(=O)[C@@H]1CCC(=O)N1)C(=O)N[C@H](Cc1ccccc1)C(=O)O [Example 35, pE-R-P-R-L-a-H-K-G-P-Nle-f-OH]		
3.9	8.72	CCCC[C@@H](NC(=O)[C@@H]1CCCN1C(=O)CNC(=O)[C@H](CCCCN)NC(=O)C(C)(C)NC(=O)[C@H](CO)NC(=O)[C@H](CC(C)C)NC(=O)[C@H](CCCNC(=N)N)NC(=O)[C@@H]1CCCN1C(=O)[C@H](CCCNC(=N)N)NC(=O)[C@@H]1CCC(=O)N1)C(=O)N[C@H](C)C(=O)N[C@@H](Cc1ccccc1)C(=O)O [Example 37, pE-R-P-R-L-S-Aib-K-G-P-nle-a-F-OH] ([pGlu]RPRLS[Aib]KGP[dNle][dA]F-OH)		
3.3	> 16.7	CCCC[C@H](NC(=O)[C@@H]1CCCN1C(=O)CNC(=O)[C@H](CCCCN)NC(=O)C(C)(C)NC(=O)[C@H](CO)NC(=O)[C@H](CC(C)C)NC(=O)[C@H](CCCNC(=N)N)NC(=O)[C@@H]1CCCN1C(=O)[C@H](CCCNC(=N)N)NC(=O)[C@@H]1CCC(=O)N1)C(=O)N[C@H](C)C(=O)N[C@H](Cc1ccccc1)C(=O)O [Example 38, pE-R-P-R-L-S-Aib-K-G-P-Nle-a-f-OH] ([pGlu]RPRLS[Aib]KGP[Nle][dA][dF]-OH)		
